Results reported in ChEMBL document CHEMBL4028900, “Design of Novel 3-Pyrimidinylazaindole CDK2/9 Inhibitors with Potent In Vitro and In Vivo Antitumor Efficacy in a Triple-Negative Breast Cancer Model” (J Med Chem, 2017).

Assays:
Ehrlich = assay: Antitumor activity against Swiss mouse EAC cells allografted in Swiss mouse assessed as tumor growth inhibition at 22 mg/kg, ip administered for 13 days measured on day 13 post last dose relative to control; type: functional; conditions: 312 h, read-out: TGI
Mus musculus [1] = assay: Toxicity in Swiss mouse allografted with Swiss mouse EAC cells assessed as body weight at 22 mg/kg, ip measured on day 1 (reference value: 26.2 g); type: organism-based; conditions: in vivo
Mus musculus [2] = assay: Toxicity in Swiss mouse allografted with Swiss mouse EAC cells assessed as body weight at 22 mg/kg, ip administered for 9 days measured on day 9 post last dose (reference value: 27.9 g); type: organism-based; conditions: in vivo, 216 h
Mus musculus [3] = assay: Toxicity in Swiss mouse allografted with Swiss mouse EAC cells assessed as body weight at 22 mg/kg, ip administered for 13 days measured on day 13 post last dose (reference value: 28.7 g); type: organism-based; conditions: in vivo, 312 h
Mus musculus [4] = assay: Toxicity in Swiss mouse allografted with Swiss mouse EAC cells assessed as mortality at 22 mg/kg, ip administered for 9 to 13 days; type: organism-based; conditions: in vivo
Mus musculus [5] = assay: Toxicity in Swiss mouse allografted with Swiss mouse EAC cells assessed as body weight at 22 mg/kg, ip administered for 5 days measured on day 5 post last dose (reference value: 27.1 g); type: organism-based; conditions: in vivo, 120 h
[6] = Plasma concentration in BALB/c mouse at 2.5 mg/kg, iv at […] by LC/MS-MS analysis; type: ADME, organism-based
[7] = target: Tyrosine-protein kinase JAK3 (Homo sapiens) (UniProt P52333); assay: Inhibition of JAK3 (unknown origin) at 500 nM relative to control
[8] = target: Mitogen-activated protein kinase 10 (Homo sapiens) (UniProt P53779); assay: Inhibition of JNK3 (unknown origin) at 100 nM relative to control
BT-549 = assay: Antiproliferative activity against human BT549 cells
[9] = target: Tyrosine-protein kinase Lck (Homo sapiens) (UniProt P06239); assay: Inhibition of LCK (unknown origin) at 100 nM relative to control
[10] = target: Vascular endothelial growth factor receptor 1 (Homo sapiens) (UniProt P17948); assay: Inhibition of VEGFR1 (unknown origin) at 100 nM relative to control
[11] = target: Inhibitor of nuclear factor kappa-B kinase subunit beta (Homo sapiens) (UniProt O14920); assay: Inhibition of IKKbeta (unknown origin) at 100 nM relative to control
[12] = target: Serine/threonine-protein kinase Chk1 (Homo sapiens) (UniProt O14757); assay: Inhibition of CHK1 (unknown origin) at 100 nM relative to control
[13] = target: Dual specificity tyrosine-phosphorylation-regulated kinase 1A (Homo sapiens) (UniProt Q13627); conditions: at 100 nM
Description: Inhibition of DYRK1a (unknown origin) at 100 nM relative to control

[14] = target: Protein-tyrosine kinase 6 (Homo sapiens) (UniProt Q13882); assay: Inhibition of BRK (unknown origin) at 500 nM relative to control
[15] = target: Dual specificity tyrosine-phosphorylation-regulated kinase 1A (Homo sapiens) (UniProt Q13627); conditions: at 500 nM
Description: Inhibition of DYRK1a (unknown origin) at 500 nM relative to control

[16] = target: Serine/threonine-protein kinase Chk1 (Homo sapiens) (UniProt O14757); assay: Inhibition of CHK1 (unknown origin) at 500 nM relative to control
4T1 [17] = assay: Antiproliferative activity against mouse 4T1 cells after 24 hrs by MTT assay; conditions: 4T1, 24 h
T47D = assay: Antiproliferative activity against human T47D cells after 72 hrs by SRB assay
[18] = target: Serine/threonine-protein kinase PLK1 (Homo sapiens) (UniProt P53350); assay: Inhibition of PLK1 (unknown origin) at 500 nM relative to control
[19] = Antiproliferative activity against HEK cells; conditions: Homo sapiens, HEK293
[20] = target: Tyrosine-protein kinase CSK (Homo sapiens) (UniProt P41240); assay: Inhibition of CSK (unknown origin) at 100 nM relative to control
[21] = target: Serine/threonine-protein kinase Sgk1 (Homo sapiens) (UniProt O00141); assay: Inhibition of SGK (unknown origin) at 100 nM relative to control
[22] = target: Serine/threonine-protein kinase 26 (Homo sapiens) (UniProt Q9P289); assay: Inhibition of MST4 (unknown origin) at 500 nM relative to control
MDA-MB-231 = assay: Antiproliferative activity against human MDA-MB-231 cells
[23] = target: Serine/threonine-protein kinase 26 (Homo sapiens) (UniProt Q9P289); assay: Inhibition of MST4 (unknown origin) at 100 nM relative to control
[24] = target: Serine/threonine-protein kinase Nek6 (Homo sapiens) (UniProt Q9HC98); assay: Inhibition of NEK6 (unknown origin) at 500 nM relative to control
[25] = target: Glycogen synthase kinase-3 beta (Homo sapiens) (UniProt P49841); assay: Inhibition of GSK3b (unknown origin) at 100 nM relative to control
[26] = Plasma concentration in BALB/c mouse at 2.5 mg/kg, iv at 1 hr by LC/MS-MS analysis; type: ADME, organism-based
[27] = target: Tyrosine-protein kinase Lck (Homo sapiens) (UniProt P06239); assay: Inhibition of LCK (unknown origin) at 500 nM relative to control
MDA-MB-468 = assay: Antiproliferative activity against human MDA-MB-468 cells
[28] = target: Aurora kinase A (Homo sapiens) (UniProt O14965); assay: Inhibition of aurora A (unknown origin) at 100 nM relative to control
[29] = target: Ribosomal protein S6 kinase beta-1 (Homo sapiens) (UniProt P23443); assay: Inhibition of S6K1 (unknown origin) at 100 nM relative to control
[30] = target: Aurora kinase A (Homo sapiens) (UniProt O14965); assay: Inhibition of aurora A (unknown origin) at 500 nM relative to control
[31] = target: Phosphatidylinositol 4,5-bisphosphate 3-kinase catalytic subunit alpha isoform (Homo sapiens) (UniProt P42336); assay: Inhibition of PI3Kalpha (unknown origin) at 500 nM relative to control
[32] = target: Vascular endothelial growth factor receptor 1 (Homo sapiens) (UniProt P17948); assay: Inhibition of VEGFR1 (unknown origin) at 500 nM relative to control
[33] = target: Tyrosine-protein kinase CSK (Homo sapiens) (UniProt P41240); assay: Inhibition of CSK (unknown origin) at 500 nM relative to control
[34] = target: Insulin receptor-related protein (Homo sapiens) (UniProt P14616); assay: Inhibition of IRR (unknown origin) at 100 nM relative to control
[35] = target: Phosphatidylinositol 4,5-bisphosphate 3-kinase catalytic subunit alpha isoform (Homo sapiens) (UniProt P42336); assay: Inhibition of PI3Kalpha (unknown origin) at 100 nM relative to control
[36] = target: Serine/threonine-protein kinase Nek6 (Homo sapiens) (UniProt Q9HC98); assay: Inhibition of NEK6 (unknown origin) at 100 nM relative to control
[37] = target: Glycogen synthase kinase-3 beta (Homo sapiens) (UniProt P49841); assay: Inhibition of GSK3b (unknown origin) at 500 nM relative to control
[38] = Selectivity ratio of IC50 for HEK cells to IC50 for human MCF7 cells
[39] = target: Protein-tyrosine kinase 6 (Homo sapiens) (UniProt Q13882); assay: Inhibition of BRK (unknown origin) at 100 nM relative to control
MCF7 = assay: Antiproliferative activity against human MCF7 cells
[40] = target: Serine/threonine-protein kinase PLK1 (Homo sapiens) (UniProt P53350); assay: Inhibition of PLK1 (unknown origin) at 100 nM relative to control
[41] = target: Insulin receptor-related protein (Homo sapiens) (UniProt P14616); assay: Inhibition of IRR (unknown origin) at 500 nM relative to control
[42] = target: Mitogen-activated protein kinase 10 (Homo sapiens) (UniProt P53779); assay: Inhibition of JNK3 (unknown origin) at 500 nM relative to control
4T1 [43] = assay: Antitumor activity against mouse 4T1 cells allografted in Balb/C mouse assessed as tumor growth inhibition at 15 mg/kg, iv administered every 3 days for 21 days measured 2 times for every week during dosing relative to control; type: functional; conditions: 4T1, iv, read-out: TGI
[44] = target: Tyrosine-protein kinase JAK3 (Homo sapiens) (UniProt P52333); assay: Inhibition of JAK3 (unknown origin) at 100 nM relative to control
SH-SY5Y = assay: Antiproliferative activity against human SH-SY5Y cells after 24 hrs by MTT assay; type: functional, cell-based
[45] = target: Ribosomal protein S6 kinase beta-1 (Homo sapiens) (UniProt P23443); assay: Inhibition of S6K1 (unknown origin) at 500 nM relative to control
[46] = Plasma concentration in BALB/c mouse at 2.5 mg/kg, iv at 0.5 hrs by LC/MS-MS analysis; type: ADME, organism-based
HCT-116 = assay: Antiproliferative activity against human HCT116 cells after 72 hrs by SRB assay; conditions: HCT-116, 72 h
[47] = target: Serine/threonine-protein kinase Sgk1 (Homo sapiens) (UniProt O00141); assay: Inhibition of SGK (unknown origin) at 500 nM relative to control
[48] = target: Inhibitor of nuclear factor kappa-B kinase subunit beta (Homo sapiens) (UniProt O14920); assay: Inhibition of IKKbeta (unknown origin) at 500 nM relative to control
[49] = Plasma concentration in BALB/c mouse at 2.5 mg/kg, iv at 0.25 hrs by LC/MS-MS analysis; type: ADME, organism-based

Glycogen synthase kinase-3 beta (Homo sapiens), sequence (P49841 whole entry, looked up): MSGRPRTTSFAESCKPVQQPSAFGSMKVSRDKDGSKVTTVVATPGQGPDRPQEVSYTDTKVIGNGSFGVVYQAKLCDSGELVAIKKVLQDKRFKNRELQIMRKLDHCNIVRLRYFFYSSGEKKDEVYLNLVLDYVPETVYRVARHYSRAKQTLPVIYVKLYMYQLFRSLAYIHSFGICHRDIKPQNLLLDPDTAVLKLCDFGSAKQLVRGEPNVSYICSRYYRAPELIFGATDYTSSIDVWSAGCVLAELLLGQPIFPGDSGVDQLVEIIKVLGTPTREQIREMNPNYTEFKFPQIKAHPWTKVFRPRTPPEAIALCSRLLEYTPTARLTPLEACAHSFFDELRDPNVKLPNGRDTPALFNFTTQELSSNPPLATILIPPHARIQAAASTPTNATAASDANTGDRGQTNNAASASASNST
Mitogen-activated protein kinase 10 (Homo sapiens), sequence (P53779 whole entry): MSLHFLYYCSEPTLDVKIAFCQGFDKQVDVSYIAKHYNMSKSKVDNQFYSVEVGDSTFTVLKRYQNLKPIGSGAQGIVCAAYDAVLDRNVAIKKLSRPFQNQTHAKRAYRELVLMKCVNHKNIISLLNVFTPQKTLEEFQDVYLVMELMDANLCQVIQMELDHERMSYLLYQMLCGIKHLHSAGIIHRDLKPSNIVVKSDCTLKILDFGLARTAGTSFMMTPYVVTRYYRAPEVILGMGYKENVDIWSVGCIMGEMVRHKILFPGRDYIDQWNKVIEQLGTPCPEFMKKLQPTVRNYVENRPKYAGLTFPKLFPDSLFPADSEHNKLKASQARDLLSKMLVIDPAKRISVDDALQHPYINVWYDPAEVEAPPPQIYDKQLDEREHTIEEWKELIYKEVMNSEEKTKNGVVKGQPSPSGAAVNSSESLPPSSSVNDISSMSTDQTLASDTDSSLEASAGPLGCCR
Aurora kinase A (Homo sapiens), sequence (O14965 whole entry, canonical isoform): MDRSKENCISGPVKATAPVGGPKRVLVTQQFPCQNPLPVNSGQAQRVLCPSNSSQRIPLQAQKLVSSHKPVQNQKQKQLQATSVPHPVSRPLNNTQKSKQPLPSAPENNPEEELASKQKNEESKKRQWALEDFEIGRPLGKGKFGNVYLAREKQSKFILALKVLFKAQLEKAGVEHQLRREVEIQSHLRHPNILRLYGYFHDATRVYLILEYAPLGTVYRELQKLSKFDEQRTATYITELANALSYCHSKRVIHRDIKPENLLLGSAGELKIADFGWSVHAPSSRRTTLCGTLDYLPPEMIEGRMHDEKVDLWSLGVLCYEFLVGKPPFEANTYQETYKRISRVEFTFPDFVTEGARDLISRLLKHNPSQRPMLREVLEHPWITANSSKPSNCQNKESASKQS
Vascular endothelial growth factor receptor 1 (Homo sapiens), sequence (P17948 whole entry): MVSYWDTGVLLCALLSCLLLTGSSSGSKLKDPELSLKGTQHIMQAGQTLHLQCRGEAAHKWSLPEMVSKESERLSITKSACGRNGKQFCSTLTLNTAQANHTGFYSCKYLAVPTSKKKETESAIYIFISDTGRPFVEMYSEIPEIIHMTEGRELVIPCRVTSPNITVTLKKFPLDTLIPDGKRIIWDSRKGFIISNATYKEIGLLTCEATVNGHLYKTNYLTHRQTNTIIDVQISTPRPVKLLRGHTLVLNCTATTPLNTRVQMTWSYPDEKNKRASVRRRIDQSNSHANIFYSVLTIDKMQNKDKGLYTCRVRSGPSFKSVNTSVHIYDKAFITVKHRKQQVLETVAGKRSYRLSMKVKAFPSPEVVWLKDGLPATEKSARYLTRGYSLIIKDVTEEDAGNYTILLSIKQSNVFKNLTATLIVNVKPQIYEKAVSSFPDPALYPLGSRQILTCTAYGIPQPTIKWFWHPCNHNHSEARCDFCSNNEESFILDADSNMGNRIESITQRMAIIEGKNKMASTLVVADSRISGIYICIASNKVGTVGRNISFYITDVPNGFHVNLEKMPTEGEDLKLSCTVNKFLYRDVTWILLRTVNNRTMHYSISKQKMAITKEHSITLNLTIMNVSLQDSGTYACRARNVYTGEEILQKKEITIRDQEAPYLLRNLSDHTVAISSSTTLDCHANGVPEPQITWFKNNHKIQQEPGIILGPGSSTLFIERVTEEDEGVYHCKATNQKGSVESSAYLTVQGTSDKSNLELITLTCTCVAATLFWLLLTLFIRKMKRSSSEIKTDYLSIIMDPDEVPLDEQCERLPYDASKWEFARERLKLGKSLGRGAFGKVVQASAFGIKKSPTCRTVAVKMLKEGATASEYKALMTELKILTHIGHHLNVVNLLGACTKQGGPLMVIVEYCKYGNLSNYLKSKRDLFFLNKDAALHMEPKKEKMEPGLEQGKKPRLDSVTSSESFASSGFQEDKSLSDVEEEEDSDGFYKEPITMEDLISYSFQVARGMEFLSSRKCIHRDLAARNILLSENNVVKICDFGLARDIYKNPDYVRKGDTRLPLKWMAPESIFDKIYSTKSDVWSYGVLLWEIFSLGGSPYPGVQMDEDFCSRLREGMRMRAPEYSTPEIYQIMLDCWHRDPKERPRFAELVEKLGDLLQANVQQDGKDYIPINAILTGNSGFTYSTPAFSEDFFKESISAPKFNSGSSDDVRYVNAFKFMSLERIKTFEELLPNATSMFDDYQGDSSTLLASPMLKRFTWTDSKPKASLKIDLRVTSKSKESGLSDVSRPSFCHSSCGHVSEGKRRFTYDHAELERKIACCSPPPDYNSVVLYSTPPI
Tyrosine-protein kinase CSK (Homo sapiens), sequence (P41240 2-450 limits assumed): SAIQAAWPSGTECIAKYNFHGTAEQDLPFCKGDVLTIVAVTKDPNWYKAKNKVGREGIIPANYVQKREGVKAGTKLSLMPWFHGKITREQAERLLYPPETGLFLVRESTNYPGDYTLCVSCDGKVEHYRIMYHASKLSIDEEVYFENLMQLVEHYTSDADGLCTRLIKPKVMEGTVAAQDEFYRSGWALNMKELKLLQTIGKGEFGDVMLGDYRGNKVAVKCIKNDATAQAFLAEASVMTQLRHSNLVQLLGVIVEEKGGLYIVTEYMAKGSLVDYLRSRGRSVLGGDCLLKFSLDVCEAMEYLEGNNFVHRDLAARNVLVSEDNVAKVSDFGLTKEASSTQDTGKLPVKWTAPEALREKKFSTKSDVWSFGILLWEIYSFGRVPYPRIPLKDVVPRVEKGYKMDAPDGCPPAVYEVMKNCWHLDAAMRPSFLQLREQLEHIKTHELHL
Phosphatidylinositol 4,5-bisphosphate 3-kinase catalytic subunit alpha isoform (Homo sapiens), sequence (P42336 whole entry, canonical isoform): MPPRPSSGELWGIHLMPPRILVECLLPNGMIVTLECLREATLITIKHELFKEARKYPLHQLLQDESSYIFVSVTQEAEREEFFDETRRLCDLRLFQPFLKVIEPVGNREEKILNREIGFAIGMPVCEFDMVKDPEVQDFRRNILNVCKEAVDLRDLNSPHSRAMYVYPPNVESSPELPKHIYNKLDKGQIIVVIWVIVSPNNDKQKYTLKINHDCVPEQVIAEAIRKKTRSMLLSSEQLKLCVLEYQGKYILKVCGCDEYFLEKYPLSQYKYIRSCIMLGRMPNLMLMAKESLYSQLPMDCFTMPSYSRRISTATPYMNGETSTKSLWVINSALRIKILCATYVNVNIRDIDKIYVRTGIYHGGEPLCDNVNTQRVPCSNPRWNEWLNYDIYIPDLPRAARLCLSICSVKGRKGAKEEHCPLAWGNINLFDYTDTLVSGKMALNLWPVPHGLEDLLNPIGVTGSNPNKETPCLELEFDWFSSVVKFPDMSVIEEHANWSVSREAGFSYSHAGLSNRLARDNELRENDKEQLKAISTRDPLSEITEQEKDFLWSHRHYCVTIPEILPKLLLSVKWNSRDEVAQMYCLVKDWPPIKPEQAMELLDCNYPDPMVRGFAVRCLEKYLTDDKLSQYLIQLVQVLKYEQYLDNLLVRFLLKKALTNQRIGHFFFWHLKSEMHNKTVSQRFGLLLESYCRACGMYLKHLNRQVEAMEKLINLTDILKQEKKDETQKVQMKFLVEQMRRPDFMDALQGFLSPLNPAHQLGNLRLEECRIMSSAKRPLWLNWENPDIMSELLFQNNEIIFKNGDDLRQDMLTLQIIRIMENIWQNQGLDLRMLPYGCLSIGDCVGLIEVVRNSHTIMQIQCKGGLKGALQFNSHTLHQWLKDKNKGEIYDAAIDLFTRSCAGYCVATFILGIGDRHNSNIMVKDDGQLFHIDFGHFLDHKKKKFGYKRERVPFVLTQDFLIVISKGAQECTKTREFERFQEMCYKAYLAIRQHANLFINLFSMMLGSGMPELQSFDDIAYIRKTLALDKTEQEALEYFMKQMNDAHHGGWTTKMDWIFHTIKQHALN
Serine/threonine-protein kinase Sgk1 (Homo sapiens), sequence (O00141 whole entry): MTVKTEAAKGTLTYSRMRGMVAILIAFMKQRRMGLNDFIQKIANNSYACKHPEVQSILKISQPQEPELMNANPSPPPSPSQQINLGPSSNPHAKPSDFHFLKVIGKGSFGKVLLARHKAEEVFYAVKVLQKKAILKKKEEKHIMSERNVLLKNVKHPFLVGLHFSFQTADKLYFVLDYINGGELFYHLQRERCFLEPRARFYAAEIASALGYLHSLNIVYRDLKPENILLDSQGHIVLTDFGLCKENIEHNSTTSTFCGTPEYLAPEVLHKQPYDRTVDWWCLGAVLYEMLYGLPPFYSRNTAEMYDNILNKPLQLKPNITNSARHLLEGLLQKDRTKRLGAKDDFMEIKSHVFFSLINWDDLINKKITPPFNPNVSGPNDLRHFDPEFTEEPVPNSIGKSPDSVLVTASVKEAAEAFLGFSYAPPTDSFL
Protein-tyrosine kinase 6 (Homo sapiens), sequence (Q13882 whole entry, looked up): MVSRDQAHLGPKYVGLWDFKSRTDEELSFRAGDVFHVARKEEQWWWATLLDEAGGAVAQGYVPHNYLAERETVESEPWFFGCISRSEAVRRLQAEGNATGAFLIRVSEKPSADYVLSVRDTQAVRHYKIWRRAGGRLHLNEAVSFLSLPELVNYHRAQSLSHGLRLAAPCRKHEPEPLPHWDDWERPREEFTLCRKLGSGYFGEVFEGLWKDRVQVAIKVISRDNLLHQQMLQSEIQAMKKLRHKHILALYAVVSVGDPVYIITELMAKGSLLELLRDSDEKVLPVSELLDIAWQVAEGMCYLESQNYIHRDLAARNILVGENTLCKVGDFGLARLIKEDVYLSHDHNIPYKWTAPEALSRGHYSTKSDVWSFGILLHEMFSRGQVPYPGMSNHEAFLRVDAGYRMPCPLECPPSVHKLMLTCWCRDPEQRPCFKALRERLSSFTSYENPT

O=c1[nH]cc(F)c(=O)[nH]1 [FLUOROURACIL]
inhibition in vivo at 22 mg/kg (Ehrlich): 50.4%
Activity (Mus musculus [1]): 26 g
Activity (Mus musculus [2]): 24.57 g
Activity (Mus musculus [3]): 24.85 g
Activity (Mus musculus [4]): Non-Toxic
Activity (Mus musculus [5]): 25 g

COc1ccnc2[nH]cc(-c3ccnc(N)n3)c12 [MERIOLIN 3]
concentration at […] [6]: 313 ng/mL
inhibition [7]: 14.6%
inhibition [8]: -7.9%
IC50 (BT-549): 0.13 µM
inhibition [9]: 7.3%
inhibition [10]: 0.9%
inhibition [11]: 37.2%
inhibition [12]: 13.4%
inhibition [13]: 96%
inhibition [14]: 9.5%
inhibition [15]: 98.3%
inhibition [16]: 13.7%
IC50 (4T1 [17]): 0.65 µM
IC50 (T47D): 0.2 µM
inhibition [18]: 14.6%
IC50 [19]: 0.188 µM
inhibition [20]: 6.9%
inhibition [21]: 29.3%
inhibition [22]: 11.4%
IC50 (MDA-MB-231): 0.2 µM
inhibition [23]: 6.7%
inhibition [24]: 20.1%
inhibition [25]: 13.4%
concentration at 1 h [26]: 35.3 ng/mL
inhibition [27]: 8.3%
IC50 (MDA-MB-468): 0.16 µM
inhibition [28]: 10.6%
inhibition [29]: 84.5%
inhibition [30]: 9.5%
inhibition [31]: 21.1%
inhibition [32]: 3.1%
inhibition [33]: -4.6%
inhibition [34]: 6.9%
inhibition [35]: 11.5%
inhibition [36]: 4.1%
inhibition [37]: 13.7%
Ratio IC50 [38]: 0.94
inhibition [39]: 10.6%
IC50 (MCF7): 0.2 µM
inhibition [40]: -1.7%
inhibition [41]: -4.6%
inhibition [42]: -2.6%
inhibition in vivo at 15 mg/kg (4T1 [43]): 95%
inhibition [44]: 31.9%
IC50 (SH-SY5Y): 0.12 µM
inhibition [45]: 91.7%
concentration at 0.5 h [46]: 54.9 ng/mL
IC50 (HCT-116): 0.1 µM
inhibition [47]: 38.1%
inhibition [48]: 43.8%
concentration at 0.25 h [49]: 141 ng/mL
